Measurements: PubChem BioAssay (NCI)
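Method: 48-hour compound exposure of cells in 96-well plates, five concentrations, linear interpolation of endpoints. Definition used: TGI = concentration required for complete inhibition of growth.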

Columns and labels:
Experiment in all cases: NCI tumour cell line growth inhibition, 48 h
A498 renal = test system: A498 renal
DMS 114 small cell lung = test system: DMS 114 small cell lung
HCT-15 colon = test system: HCT-15 colon
HL-60(TB) leukemia = test system: HL-60(TB) leukemia
HOP-18 NSCLC = test system: HOP-18 NSCLC
IGROV1 ovarian = test system: IGROV1 ovarian
KM20L2 colon = test system: KM20L2 colon
NCI-H226 lung = test system: NCI-H226 lung
RXF 393 renal = test system: RXF 393 renal
SF-539 CNS = test system: SF-539 CNS
SK-MEL-2 melanoma = test system: SK-MEL-2 melanoma
SK-MEL-5 melanoma = test system: SK-MEL-5 melanoma
TK-10 renal = test system: TK-10 renal
BT-549 breast = test system: BT-549 breast
MCF7 breast = test system: MCF7 breast
MDA-MB-231 breast = test system: MDA-MB-231 breast
NCI-H522 lung = test system: NCI-H522 lung
HS 578T breast = test system: HS 578T breast
MDA-N = test system: MDA-N
T-47D breast = test system: T-47D breast

C#CCCCCC#Cc1ccccc1C(=O)OC
TGI (A498 renal): > 100 µM
TGI (DMS 114 small cell lung): 60 µM
TGI (HCT-15 colon): > 100 µM
TGI (HL-60(TB) leukemia): 29.4 µM
TGI (HOP-18 NSCLC): > 100 µM
TGI (IGROV1 ovarian): > 100 µM
TGI (KM20L2 colon): > 100 µM
TGI (NCI-H226 lung): > 100 µM
TGI (RXF 393 renal): 95.1 µM
TGI (SF-539 CNS): > 100 µM
TGI (SK-MEL-2 melanoma): > 100 µM
TGI (SK-MEL-5 melanoma): > 100 µM
TGI (TK-10 renal): > 100 µM

C=CCN1C(=O)/C(=C/c2ccccc2)N=C1SC1OC(COC(=O)c2ccccc2)C(OC(=O)c2ccccc2)C1OC(=O)c1ccccc1 (stereo not given)
TGI (A498 renal): > 100 µM
TGI (BT-549 breast): > 100 µM
TGI (HCT-15 colon): > 100 µM
TGI (HL-60(TB) leukemia): > 100 µM
TGI (IGROV1 ovarian): > 100 µM
TGI (MCF7 breast): > 100 µM
TGI (MDA-MB-231 breast): > 100 µM
TGI (NCI-H226 lung): > 100 µM
TGI (NCI-H522 lung): 41.5 µM
TGI (RXF 393 renal): > 100 µM
TGI (SF-539 CNS): > 100 µM
TGI (SK-MEL-2 melanoma): > 100 µM
TGI (SK-MEL-5 melanoma): > 100 µM
TGI (TK-10 renal): > 100 µM

O=C(O)CC/C(=N\Nc1nsc2ccccc12)c1ccccc1
TGI (DMS 114 small cell lung): 82 µM
TGI (HCT-15 colon): > 100 µM
TGI (HL-60(TB) leukemia): 71.9 µM
TGI (HOP-18 NSCLC): > 100 µM
TGI (IGROV1 ovarian): > 100 µM
TGI (KM20L2 colon): > 100 µM
TGI (RXF 393 renal): > 100 µM
TGI (SF-539 CNS): > 100 µM
TGI (SK-MEL-2 melanoma): > 100 µM
TGI (SK-MEL-5 melanoma): > 100 µM
TGI (TK-10 renal): > 100 µM

CCN1c2ccccc2-n2c(C)nnc2-c2c1n[nH]c2-c1ccccc1
TGI (HCT-15 colon): > 100 µM
TGI (HL-60(TB) leukemia): 28.5 µM
TGI (HS 578T breast): > 100 µM
TGI (IGROV1 ovarian): > 100 µM
TGI (MDA-MB-231 breast): 71.1 µM
TGI (MDA-N): > 100 µM
TGI (NCI-H522 lung): 5.98 µM
TGI (RXF 393 renal): > 100 µM
TGI (SF-539 CNS): > 100 µM
TGI (SK-MEL-2 melanoma): 45.6 µM
TGI (SK-MEL-5 melanoma): 35.3 µM
TGI (T-47D breast): 74.7 µM
TGI (TK-10 renal): > 100 µM

COC(=O)C1C(C(=O)OC)N(Cc2ccccc2)C(=O)N1Cc1ccccc1 (stereo not given)
TGI (BT-549 breast): > 100 µM
TGI (HL-60(TB) leukemia): > 100 µM
TGI (HS 578T breast): > 100 µM
TGI (IGROV1 ovarian): > 100 µM
TGI (MCF7 breast): > 100 µM
TGI (MDA-N): > 100 µM
TGI (NCI-H226 lung): > 100 µM
TGI (NCI-H522 lung): 96.3 µM
TGI (RXF 393 renal): > 100 µM
TGI (SF-539 CNS): > 100 µM
TGI (SK-MEL-2 melanoma): > 100 µM
TGI (SK-MEL-5 melanoma): > 100 µM
TGI (T-47D breast): > 100 µM
TGI (TK-10 renal): > 100 µM
